Calls of active or inactive are those of the source. The calls are words filed in the database; no cut-off is given here.
Columns and labels:
[1] = molecular target: T1, Extracellular calcium-sensing receptor (Rattus norvegicus) (UniProt P48442); assay: Agonist activity at rat brain CaSR expressed in CHO cells assessed as inositol phosphate production at 3 uM in presence of 3 mM extracellular Ca2+ by IP-one assay; format: functional, cell-based
T1 sequence (whole entry): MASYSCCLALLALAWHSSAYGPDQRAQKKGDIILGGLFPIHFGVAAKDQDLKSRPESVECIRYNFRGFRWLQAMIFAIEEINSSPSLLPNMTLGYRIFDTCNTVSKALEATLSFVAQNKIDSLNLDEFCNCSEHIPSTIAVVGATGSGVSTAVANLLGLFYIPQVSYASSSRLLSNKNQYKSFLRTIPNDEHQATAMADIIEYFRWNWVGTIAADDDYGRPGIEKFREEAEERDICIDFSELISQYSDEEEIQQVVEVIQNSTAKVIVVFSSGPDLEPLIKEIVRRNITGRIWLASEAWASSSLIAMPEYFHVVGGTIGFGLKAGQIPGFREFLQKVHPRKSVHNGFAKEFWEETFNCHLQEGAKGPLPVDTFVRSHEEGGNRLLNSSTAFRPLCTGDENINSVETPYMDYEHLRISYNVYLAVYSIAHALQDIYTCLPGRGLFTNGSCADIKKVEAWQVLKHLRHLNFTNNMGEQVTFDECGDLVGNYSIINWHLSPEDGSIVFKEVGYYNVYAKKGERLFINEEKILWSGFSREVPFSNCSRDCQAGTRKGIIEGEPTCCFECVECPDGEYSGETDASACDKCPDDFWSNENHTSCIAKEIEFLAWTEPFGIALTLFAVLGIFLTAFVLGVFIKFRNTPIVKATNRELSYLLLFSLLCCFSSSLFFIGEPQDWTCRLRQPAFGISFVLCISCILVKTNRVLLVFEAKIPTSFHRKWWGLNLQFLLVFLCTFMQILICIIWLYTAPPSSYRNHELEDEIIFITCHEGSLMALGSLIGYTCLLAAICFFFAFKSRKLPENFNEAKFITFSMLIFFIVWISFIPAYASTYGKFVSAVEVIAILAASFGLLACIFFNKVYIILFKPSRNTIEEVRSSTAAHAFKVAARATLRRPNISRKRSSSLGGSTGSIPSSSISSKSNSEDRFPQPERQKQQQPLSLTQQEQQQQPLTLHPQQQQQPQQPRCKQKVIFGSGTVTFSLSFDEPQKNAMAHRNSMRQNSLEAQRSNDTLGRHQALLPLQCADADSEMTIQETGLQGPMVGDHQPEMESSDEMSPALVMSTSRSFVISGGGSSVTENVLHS

[2] = molecular target: T2, Extracellular calcium-sensing receptor (Rattus norvegicus, UniProt P48442); assay: Agonist activity at rat brain CaSR expressed in CHO cells assessed as inositol phosphate production in presence of 3 mM extracellular Ca2+ by IP-one assay; format: functional, cell-based
T2 sequence (P48442 whole entry): T1 sequence (whole entry)

[3] = molecular target: T1, Extracellular calcium-sensing receptor (Rattus norvegicus); assay: Agonist activity at rat brain CaSR expressed in CHO cells assessed as inositol phosphate production at 10 uM in presence of 3 mM extracellular Ca2+ by IP-one assay; format: functional, cell-based
[4] = molecular target: T3, G-protein coupled receptor family C group 6 member A (Mus musculus) (UniProt Q8K4Z6); assay: Inhibition of L-Ornithine-stimulated wild type mouse GPRC6A expressed in HEK293 cells coexpressing GalphaqG66D assessed as increase in [3H] inositol phosphate production at 10 uM incubated for 30 mins in presence of 2 mM extracellular Ca2+; format: functional, cell-based
T3 sequence (whole entry): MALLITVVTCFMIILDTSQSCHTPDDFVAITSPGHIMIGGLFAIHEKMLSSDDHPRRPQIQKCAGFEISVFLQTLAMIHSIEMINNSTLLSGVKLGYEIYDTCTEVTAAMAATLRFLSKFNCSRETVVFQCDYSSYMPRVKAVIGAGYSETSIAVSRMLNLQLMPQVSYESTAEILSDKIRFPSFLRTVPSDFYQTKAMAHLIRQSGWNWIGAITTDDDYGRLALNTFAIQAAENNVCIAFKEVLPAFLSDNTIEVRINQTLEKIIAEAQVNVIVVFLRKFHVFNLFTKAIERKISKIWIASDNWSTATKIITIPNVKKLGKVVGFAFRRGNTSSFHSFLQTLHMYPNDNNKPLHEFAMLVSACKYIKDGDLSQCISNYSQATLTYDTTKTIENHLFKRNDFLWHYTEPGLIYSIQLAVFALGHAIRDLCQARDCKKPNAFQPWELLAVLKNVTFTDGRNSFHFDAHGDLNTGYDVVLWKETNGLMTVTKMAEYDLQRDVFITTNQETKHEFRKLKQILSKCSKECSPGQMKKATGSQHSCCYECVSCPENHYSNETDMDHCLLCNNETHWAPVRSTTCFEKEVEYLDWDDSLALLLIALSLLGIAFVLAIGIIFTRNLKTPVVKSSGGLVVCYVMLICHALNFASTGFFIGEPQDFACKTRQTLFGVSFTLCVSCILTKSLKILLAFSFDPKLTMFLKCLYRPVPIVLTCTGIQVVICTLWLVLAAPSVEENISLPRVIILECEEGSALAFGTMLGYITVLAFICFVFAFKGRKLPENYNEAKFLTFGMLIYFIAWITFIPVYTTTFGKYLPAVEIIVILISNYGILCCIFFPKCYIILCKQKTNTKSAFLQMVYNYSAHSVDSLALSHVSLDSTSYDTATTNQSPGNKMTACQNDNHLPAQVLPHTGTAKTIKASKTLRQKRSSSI

HEK293 = assay: Effect on inositol phosphate production in HEK293 cells in absence of L-Ornithine; format: ADME, cell-based; conditions: human
[5] = molecular target: T1, Extracellular calcium-sensing receptor (Rattus norvegicus); assay: Agonist activity at rat brain CaSR expressed in CHO cells assessed as inositol phosphate production at 0.1 uM in presence of 3 mM extracellular Ca2+ by IP-one assay; format: functional, cell-based
[6] = molecular target: T1, Extracellular calcium-sensing receptor (Rattus norvegicus); assay: Agonist activity at rat brain CaSR expressed in CHO cells assessed as inositol phosphate production at 10 uM in presence of 2 mM extracellular Ca2+ by IP-one assay; format: functional, cell-based
[7] = molecular target: T1, Extracellular calcium-sensing receptor (Rattus norvegicus); assay: Agonist activity at rat brain CaSR expressed in CHO cells assessed as inositol phosphate production at 3 uM in presence of 2 mM extracellular Ca2+ by IP-one assay; format: functional, cell-based

SMILES | Activity [1] | Activity [6] | other results
C[C@@H](NCc1cc2ccccc2[nH]1)c1ccc(Br)cc1 | 26% |  | 
C[C@@H](NCc1cc2c(O)cccc2[nH]1)c1cccc2ccccc12 | 88% |  | EC50 [2]: 102 nM
C[C@@H](NC1CCCc2c1[nH]c1ccccc21)c1cccc2ccccc12 (mixture of isomers) |  |  | Activity [3]: 67%
C[C@@H](NCc1cc2c(-c3ccccc3)cccc2[nH]1)c1cccc2ccccc12 | 85% |  | Activity [3]: 102%; EC50 [2]: 136 nM; inhibition [4]: inactive; Activity (HEK293): Non-toxic
CC(NCc1cc2ccccc2[nH]1)c1ccc(F)c2ccccc12 (racemic) | 89% |  | EC50 [2]: 131 nM; inhibition [4]: inactive; Activity (HEK293): Non-toxic
C[C@@H](NCc1cc2cccc([N+](=O)[O-])c2[nH]1)c1cccc2ccccc12 | 102% |  | Activity [5]: 70%; EC50 [2]: 20 nM; inhibition [4]: inactive; Activity (HEK293): Non-toxic
COc1cc2cc(CN[C@H](C)c3cccc4ccccc34)[nH]c2c(OC)c1OC | 40% |  | 
C[C@@H](NCc1cc2cc(O)ccc2[nH]1)c1cccc2ccccc12 | 92% |  | EC50 [2]: 112 nM
COc1cccc([C@@H](C)NCc2cc3ccccc3[nH]2)c1 |  | 54% | 
Cc1ccc2[nH]c(CN[C@H](C)c3cccc4ccccc34)cc2c1 |  | 69% | Activity [7]: 1%
C[C@@H](NCc1cc2cc(F)ccc2[nH]1)c1cccc2ccccc12 |  | 74% | Activity [7]: 30%
COc1cccc2[nH]c(CN[C@H](C)c3cccc4ccccc34)cc12 |  | 95% | Activity [7]: 63%
C[C@@H](NCc1[nH]c2ccccc2c1-c1ccccc1)c1cccc2ccccc12 |  |  | Activity [3]: 55%
CC(NCc1cc2ccccc2[nH]1)c1cccc(Br)c1 (racemic) | 49% |  | 
COc1cc(OC)c2cc(CN[C@H](C)c3cccc4ccccc34)[nH]c2c1 |  | 94% | Activity [7]: 53%
C[C@@H](NCc1cc2ccccc2[nH]1)c1cccc2ccccc12 [CALINDOL] | 83% | 103% | Activity [3]: 100%; Activity [7]: 73%; EC50 [2]: 132 nM; inhibition [4]: 35%
C[C@@H](NCc1cc2ccccc2[nH]1)c1ccc(F)cc1 | 30% |  | 
C[C@@H](NCc1cc2cc(S(C)(=O)=O)ccc2[nH]1)c1cccc2ccccc12 | 54% |  | 
CC(NCc1cc2ccccc2[nH]1)c1ccccc1O (racemic) | 1% |  | Activity [3]: 1%
COc1ccc([C@@H](C)NCc2cc3ccccc3[nH]2)cc1 |  | 27% | 
CC(NCc1cc2ccccc2[nH]1)c1ccc(-c2ccccc2)cc1 (racemic) | 2% |  | Activity [3]: 1%
C[C@@H](NCc1cc2cccc(O)c2[nH]1)c1cccc2ccccc12 | 55% |  | Activity [3]: 83%
COc1ccc2cc(CN[C@H](C)c3cccc4ccccc34)[nH]c2c1 |  | 76% | Activity [7]: 33%
C[C@@H](NCc1cc2cc([N+](=O)[O-])ccc2[nH]1)c1cccc2ccccc12 | 30% |  | 
C[C@@H](NCc1cc2cc(OCc3ccccc3)ccc2[nH]1)c1cccc2ccccc12 | 23% |  | 
C[C@@H](NCc1cc2cccc(-c3ccccc3)c2[nH]1)c1cccc2ccccc12 | 79% |  | 
C[C@@H](NCc1cc2ccccc2[nH]1)c1ccccc1 |  | 34% | 
Cc1ccc([C@@H](C)NCc2cc3ccccc3[nH]2)cc1 |  | 29% | 
C[C@@H](NCc1[nH]c2ccccc2c1Br)c1cccc2ccccc12 | 21% |  | 

From ChEMBL document CHEMBL3751687, “Design and synthesis of calindol derivatives as potent and selective calcium sensing receptor agonists” (Bioorg Med Chem, 2016)
